Data: patent US20230085307A1, “PYRIDAZINONE COMPOUND AND HERBICIDE” (NISSAN CHEMICAL CORPORATION, priority 2019, published 2023)

Experiments:
late watergrass = test: Test Example 1: herbicidal activity, application before weed generation under submerged conditions (Table 16, symbol A); format: in vivo, late watergrass (Echinochloa oryzicola); conditions: 320 g/ha applied herbicide
How it was run: (§1)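 Submerged Wagner pots (alluvial soil, 4 cm water) sown with weed seeds and planted with 2.5-leaf rice seedlings; emulsifiable concentrate diluted in water applied to water surface on sowing day. Held in greenhouse at 25-30 °C; injury scored 0-5 by herbicidal rate after three weeks.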

Japanese bulrush = test: Test Example 1: herbicidal activity, application before weed generation under submerged conditions (Table 16, symbol B); format: in vivo, Japanese bulrush (Schoenoplectus juncoides); conditions: 320 g/ha applied herbicide
How it was run: as §1

oval-leafed pondweed = test: Test Example 1: herbicidal activity, application before weed generation under submerged conditions (Table 16, symbol C); format: in vivo, oval-leafed pondweed (Monochoria vaginalis); conditions: 320 g/ha applied herbicide
How it was run: as §1

barnyard grass [1] = test: Test Example 3: herbicidal effect by foliage application, Wagner pot (Table 18, symbol H); format: in vivo, barnyard grass (Echinochloa crus-galli); conditions: 320 g/ha
How it was run: (§2)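 Plants were sown in alluvial soil held under 0.1–0.5 cm standing water and grown 14 days in a greenhouse at 25–30 °C. An emulsifiable formulation, water-diluted to the set dose, was then sprayed onto the foliage, and effects were scored three weeks later using previously defined criteria.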

Chinese sprangletop = test: Test Example 3: herbicidal effect by foliage application, Wagner pot (Table 18, symbol D); format: in vivo, chinese sprangletop (Leptochloa chinensis); conditions: 320 g/ha
How it was run: as §2

rice flat sedge = test: Test Example 3: herbicidal effect by foliage application, Wagner pot (Table 18, symbol E); format: in vivo, rice flat sedge (Cyperus iria); conditions: 320 g/ha
How it was run: as §2

southern crabgrass [2] = test: Test Example 4: herbicidal effect by soil treatment (Table 19, symbol F); format: in vivo, southern crabgrass (Digitaria ciliaris); conditions: amount of applied herbicide 320 g/ha
How it was run: (§3)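 Herbicidal effect was rated 3 weeks after treatment, using the scoring criteria of an earlier test. The compound, formulated as an emulsion and diluted in water to a set herbicide amount, had been sprayed uniformly on soil over freshly sown seeds. Growth took place in a greenhouse at 25° C. to 30° C.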

green foxtail [3] = test: Test Example 4: herbicidal effect by soil treatment (Table 19, symbol G); format: in vivo, green foxtail (Setaria viridis); conditions: amount of applied herbicide 320 g/ha
How it was run: as §3

barnyard grass [4] = test: Test Example 4: herbicidal effect by soil treatment (Table 19, symbol H); format: in vivo, barnyard grass (Echinochloa crus-galli); conditions: amount of applied herbicide 320 g/ha
How it was run: as §3

wild oat [5] = test: Test Example 4: herbicidal effect by soil treatment (Table 19, symbol I); format: in vivo, wild oat (Avena fatua); conditions: amount of applied herbicide 320 g/ha
How it was run: as §3

blackgrass [6] = test: Test Example 4: herbicidal effect by soil treatment (Table 19, symbol J); format: in vivo, blackgrass (Alopecurus myosuroides); conditions: amount of applied herbicide 320 g/ha
How it was run: as §3

Italian ryegrass [7] = test: Test Example 4: herbicidal effect by soil treatment (Table 19, symbol K); format: in vivo, Italian ryegrass (Lolium multiflorum); conditions: amount of applied herbicide 320 g/ha
How it was run: as §3

windgrass [8] = test: Test Example 4: herbicidal effect by soil treatment (Table 19, symbol L); format: in vivo, windgrass (Apera spica-venti); conditions: amount of applied herbicide 320 g/ha
How it was run: as §3

velvetleaf [9] = test: Test Example 4: herbicidal effect by soil treatment (Table 19, symbol M); format: in vivo, velvetleaf (Abutilon theophrasti); conditions: amount of applied herbicide 320 g/ha
How it was run: as §3

redroot pigweed [10] = test: Test Example 4: herbicidal effect by soil treatment (Table 19, symbol N); format: in vivo, redroot pigweed (Amaranthus retroflexus); conditions: amount of applied herbicide 320 g/ha
How it was run: as §3

lambsquarters [11] = test: Test Example 4: herbicidal effect by soil treatment (Table 19, symbol O); format: in vivo, lambsquarters (Chenopodium album); conditions: amount of applied herbicide 320 g/ha
How it was run: as §3

chickweed [12] = test: Test Example 4: herbicidal effect by soil treatment (Table 19, symbol P); format: in vivo, common chickweed (Stellaria media); conditions: amount of applied herbicide 320 g/ha
How it was run: as §3

false cleavers [13] = test: Test Example 4: herbicidal effect by soil treatment (Table 19, symbol Q); format: in vivo, false cleavers (Galium spurium); conditions: amount of applied herbicide 320 g/ha
How it was run: as §3

persian speedwell [14] = test: Test Example 4: herbicidal effect by soil treatment (Table 19, symbol R); format: in vivo, Persian speedwell (Veronica persica); conditions: amount of applied herbicide 320 g/ha
How it was run: as §3

southern crabgrass [15] = test: Test Example 5: herbicidal effect by foliage application, plastic box (Table 20, symbol F); format: in vivo, southern crabgrass (Digitaria ciliaris); conditions: foliage application, 320 g/ha, three weeks after application
How it was run: (§4)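 Foliar spray test: emulsion formulation diluted in water to a set application rate, sprayed onto 14-day-old plants raised in diluvial soil at 25° C to 30° C under glass. Both herbicidal effect and crop effect rated visually three weeks later.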

green foxtail [16] = test: Test Example 5: herbicidal effect by foliage application, plastic box (Table 20, symbol G); format: in vivo, green foxtail (Setaria viridis); conditions: foliage application, 320 g/ha, three weeks after application
How it was run: as §4

barnyard grass [17] = test: Test Example 5: herbicidal effect by foliage application, plastic box (Table 20, symbol H); format: in vivo, barnyard grass (Echinochloa crus-galli); conditions: foliage application, 320 g/ha, three weeks after application
How it was run: as §4

wild oat [18] = test: Test Example 5: herbicidal effect by foliage application, plastic box (Table 20, symbol I); format: in vivo, wild oat (Avena fatua); conditions: foliage application, 320 g/ha, three weeks after application
How it was run: as §4

blackgrass [19] = test: Test Example 5: herbicidal effect by foliage application, plastic box (Table 20, symbol J); format: in vivo, blackgrass (Alopecurus myosuroides); conditions: foliage application, 320 g/ha, three weeks after application
How it was run: as §4

Italian ryegrass [20] = test: Test Example 5: herbicidal effect by foliage application, plastic box (Table 20, symbol K); format: in vivo, Italian ryegrass (Lolium multiflorum); conditions: foliage application, 320 g/ha, three weeks after application
How it was run: as §4

windgrass [21] = test: Test Example 5: herbicidal effect by foliage application, plastic box (Table 20, symbol L); format: in vivo, windgrass (Apera spica-venti); conditions: foliage application, 320 g/ha, three weeks after application
How it was run: as §4

velvetleaf [22] = test: Test Example 5: herbicidal effect by foliage application, plastic box (Table 20, symbol M); format: in vivo, velvetleaf (Abutilon theophrasti); conditions: foliage application, 320 g/ha, three weeks after application
How it was run: as §4

redroot pigweed [23] = test: Test Example 5: herbicidal effect by foliage application, plastic box (Table 20, symbol N); format: in vivo, redroot pigweed (Amaranthus retroflexus); conditions: foliage application, 320 g/ha, three weeks after application
How it was run: as §4

lambsquarters [24] = test: Test Example 5: herbicidal effect by foliage application, plastic box (Table 20, symbol O); format: in vivo, lambsquarters (Chenopodium album); conditions: foliage application, 320 g/ha, three weeks after application
How it was run: as §4

chickweed [25] = test: Test Example 5: herbicidal effect by foliage application, plastic box (Table 20, symbol P); format: in vivo, common chickweed (Stellaria media); conditions: foliage application, 320 g/ha, three weeks after application
How it was run: as §4

false cleavers [26] = test: Test Example 5: herbicidal effect by foliage application, plastic box (Table 20, symbol Q); format: in vivo, false cleavers (Galium spurium); conditions: foliage application, 320 g/ha, three weeks after application
How it was run: as §4

persian speedwell [27] = test: Test Example 5: herbicidal effect by foliage application, plastic box (Table 20, symbol R); format: in vivo, Persian speedwell (Veronica persica); conditions: foliage application, 320 g/ha, three weeks after application
How it was run: as §4

| SMILES | Herbicidal effect on A: late watergrass (grade 0-5) (late watergrass) | Herbicidal effect on B: Japanese bulrush (grade 0-5) (Japanese bulrush) | Herbicidal effect on C: oval-leafed pondweed (grade 0-5) (oval-leafed pondweed) | herbicidal effect on H (barnyard grass), rating 0-5 (barnyard grass [1]) | herbicidal effect on D (Chinese sprangletop), rating 0-5 (Chinese sprangletop) | herbicidal effect on E (rice flat sedge), rating 0-5 (rice flat sedge) | herbicidal effect rating, F: southern crabgrass (southern crabgrass [2]) | herbicidal effect rating, G: green foxtail (green foxtail [3]) | herbicidal effect rating, H: barnyard grass (barnyard grass [4]) | herbicidal effect rating, I: wild oat (wild oat [5]) | herbicidal effect rating, J: blackgrass (blackgrass [6]) | herbicidal effect rating, K: Italian ryegrass (Italian ryegrass [7]) | herbicidal effect rating, L: windgrass (windgrass [8]) | herbicidal effect rating, M: velvetleaf (velvetleaf [9]) | herbicidal effect rating, N: redroot pigweed (redroot pigweed [10]) | herbicidal effect rating, O: lambsquarters (lambsquarters [11]) | herbicidal effect rating, P: chickweed (chickweed [12]) | herbicidal effect rating, Q: false cleavers (false cleavers [13]) | herbicidal effect rating, R: persian speedwell (persian speedwell [14]) | herbicidal effect grade, F: southern crabgrass (southern crabgrass [15]) | also measured |
| --- | --- | --- | --- | --- | --- | --- | --- | --- | --- | --- | --- | --- | --- | --- | --- | --- | --- | --- | --- | --- | --- |
| CCCC(=O)Oc1c(C)nn(C)c(=O)c1-c1c(-c2ccc(OC)c(C)c2)sc2ccccc12 [1-069] | 3 (Herbicidal rate of 40% or more and less than 70%) | 3 (Herbicidal rate of 40% or more and less than 70%) | 3 (Herbicidal rate of 40% or more and less than 70%) | 3 (Herbicidal rate of 40% or more and less than 70%) | 0 (Herbicidal rate of 5% or less (almost no effect)) | 5 (Herbicidal rate of 90% or more (almost completely withered)) | 0 (Herbicidal rate of 5% or less (almost no effect)) | 0 (Herbicidal rate of 5% or less (almost no effect)) | 0 (Herbicidal rate of 5% or less (almost no effect)) | 0 (Herbicidal rate of 5% or less (almost no effect)) | 0 (Herbicidal rate of 5% or less (almost no effect)) | 0 (Herbicidal rate of 5% or less (almost no effect)) | 0 (Herbicidal rate of 5% or less (almost no effect)) | 0 (Herbicidal rate of 5% or less (almost no effect)) | 0 (Herbicidal rate of 5% or less (almost no effect)) | 0 (Herbicidal rate of 5% or less (almost no effect)) | 3 (Herbicidal rate of 40% or more and less than 70%) | 0 (Herbicidal rate of 5% or less (almost no effect)) | 4 (Herbicidal rate of 70% or more and less than 90%) | 0 (Herbicidal rate of 5% or less (almost no effect)) | herbicidal effect grade, G: green foxtail (green foxtail [16]): 0 (Herbicidal rate of 5% or less (almost no effect)); herbicidal effect grade, H: barnyard grass (barnyard grass [17]): 0 (Herbicidal rate of 5% or less (almost no effect)); herbicidal effect grade, I: wild oat (wild oat [18]): 1 (Herbicidal rate of 5% or more and less than 20%); herbicidal effect grade, J: blackgrass (blackgrass [19]): 0 (Herbicidal rate of 5% or less (almost no effect)); herbicidal effect grade, K: Italian ryegrass (Italian ryegrass [20]): 3 (Herbicidal rate of 40% or more and less than 70%); herbicidal effect grade, L: windgrass (windgrass [21]): 0 (Herbicidal rate of 5% or less (almost no effect)); herbicidal effect grade, M: velvetleaf (velvetleaf [22]): 5 (Herbicidal rate of 90% or more (almost completely withered)); herbicidal effect grade, N: redroot pigweed (redroot pigweed [23]): 5 (Herbicidal rate of 90% or more (almost completely withered)); herbicidal effect grade, O: lambsquarters (lambsquarters [24]): 0 (Herbicidal rate of 5% or less (almost no effect)); herbicidal effect grade, P: chickweed (chickweed [25]): 4 (Herbicidal rate of 70% or more and less than 90%); herbicidal effect grade, Q: false cleavers (false cleavers [26]): 0 (Herbicidal rate of 5% or less (almost no effect)); herbicidal effect grade, R: persian speedwell (persian speedwell [27]): 4 (Herbicidal rate of 70% or more and less than 90%) |
| CCCC(=O)Oc1c(C)nn(C)c(=O)c1-c1c(-c2ccc(C(C)=O)cc2)sc2ccccc12 [1-042] | 3 (Herbicidal rate of 40% or more and less than 70%) | 4 (Herbicidal rate of 70% or more and less than 90%) | 3 (Herbicidal rate of 40% or more and less than 70%) | 3 (Herbicidal rate of 40% or more and less than 70%) | 0 (Herbicidal rate of 5% or less (almost no effect)) | 5 (Herbicidal rate of 90% or more (almost completely withered)) | 2 (Herbicidal rate of 20% or more and less than 40%) | 3 (Herbicidal rate of 40% or more and less than 70%) | 0 (Herbicidal rate of 5% or less (almost no effect)) | 0 (Herbicidal rate of 5% or less (almost no effect)) | 0 (Herbicidal rate of 5% or less (almost no effect)) | 3 (Herbicidal rate of 40% or more and less than 70%) | 0 (Herbicidal rate of 5% or less (almost no effect)) | 3 (Herbicidal rate of 40% or more and less than 70%) | 5 (Herbicidal rate of 90% or more (almost completely withered)) | 3 (Herbicidal rate of 40% or more and less than 70%) | 4 (Herbicidal rate of 70% or more and less than 90%) | 0 (Herbicidal rate of 5% or less (almost no effect)) | 5 (Herbicidal rate of 90% or more (almost completely withered)) | 3 (Herbicidal rate of 40% or more and less than 70%) | herbicidal effect grade, G: green foxtail (green foxtail [16]): 3 (Herbicidal rate of 40% or more and less than 70%); herbicidal effect grade, H: barnyard grass (barnyard grass [17]): 3 (Herbicidal rate of 40% or more and less than 70%); herbicidal effect grade, I: wild oat (wild oat [18]): 0 (Herbicidal rate of 5% or less (almost no effect)); herbicidal effect grade, J: blackgrass (blackgrass [19]): 0 (Herbicidal rate of 5% or less (almost no effect)); herbicidal effect grade, K: Italian ryegrass (Italian ryegrass [20]): 4 (Herbicidal rate of 70% or more and less than 90%); herbicidal effect grade, M: velvetleaf (velvetleaf [22]): 5 (Herbicidal rate of 90% or more (almost completely withered)); herbicidal effect grade, N: redroot pigweed (redroot pigweed [23]): 4 (Herbicidal rate of 70% or more and less than 90%); herbicidal effect grade, O: lambsquarters (lambsquarters [24]): 3 (Herbicidal rate of 40% or more and less than 70%); herbicidal effect grade, P: chickweed (chickweed [25]): 5 (Herbicidal rate of 90% or more (almost completely withered)); herbicidal effect grade, Q: false cleavers (false cleavers [26]): 2 (Herbicidal rate of 20% or more and less than 40%); herbicidal effect grade, R: persian speedwell (persian speedwell [27]): 5 (Herbicidal rate of 90% or more (almost completely withered)) |
